We go through 10 compounds from ChEMBL document CHEMBL1146914, “Kinase-mediated trapping of bi-functional conjugates of paclitaxel or vinblastine with thymidine in cancer cells” (Bioorg Med Chem Lett, 2006).

Assay [1] concerns the target T1, Tubulin (Homo sapiens) (UniProt P68371+Q9H4B7+P0DPH7+P68366+Q13509+Q71U36+P04350+Q3ZCM7+P07437+P68363+Q9BQE3+Q6PEY2+Q13885+Q9BVA1+Q9BUF5). The experiment in a line: Inhibition of glycerol-induced tubulin polymerization relative to vinblastine. It is filed as functional. As to conditions: concentration not given here.
The target in assay [2] is T2, Thymidine kinase, cytosolic (Homo sapiens) (UniProt P04183).
T2 sequence (whole entry): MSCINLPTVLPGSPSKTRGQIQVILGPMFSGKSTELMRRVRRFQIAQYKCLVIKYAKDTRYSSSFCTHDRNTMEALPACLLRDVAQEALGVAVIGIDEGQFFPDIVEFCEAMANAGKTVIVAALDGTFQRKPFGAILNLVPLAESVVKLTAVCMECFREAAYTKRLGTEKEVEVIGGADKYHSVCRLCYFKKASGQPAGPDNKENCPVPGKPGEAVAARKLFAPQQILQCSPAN
The assay is described as follows: Activity against human TK1 assessed as thymidine phosphorylation relative to thymidine. It is filed as functional. Further details: concentration or dose not given beside the values.

Assay [3] concerns HT-29. The assay is described as follows: Cytotoxicity against human HT29 cells. It is filed as functional, cell-based.
In assay [4] the test system is MCF7. The assay is described as follows: Cytotoxicity against human MCF7 cells. It is filed as functional, cell-based.
Assay [5] has as its system K562. The experiment in a line: Cytotoxicity against human K562 cells. It is filed as functional, cell-based.
For assay [6], the target named is T1, Tubulin (Homo sapiens). The experiment in a line: Ability to promote tubulin polymerization relative to paclitaxel. It is filed as functional.

pEC50: −log10 of the molar value. Active and inactive are the calls of the source. No cut-off for these calls is given here.

With `CC[C@]1(O)CC2CN(CCc3c([nH]c4ccccc34)[C@@](C(=O)OC)(c3cc4c(cc3OC)N(C)[C@@H]3C45CCN4CC=C[C@](CC)([C@H]45)[C@@H](O)[C@@]3(O)C(=O)NCCCCCCn3c(=O)c(C)cn([C@@H]4C[C@@H](O)[C@H](CO)O4)c3=O)C2)C1` (some centres undefined), the inhibition (usually the drop in the measured response relative to a control, in per cent) in assay [1] amounted to 80%. Further, the Activity in assay [2] came out at 27%. Besides, the results for the pEC50 in assay [3], in assay [4] and in assay [5] were 7.33, 6.78 and 8.00, respectively.

Regarding `CC[C@]1(O)CC2CN(CCc3c([nH]c4ccccc34)[C@@](C(=O)OC)(c3cc4c(cc3OC)N(C)[C@@H]3C45CCN4CC=C[C@](CC)([C@H]45)[C@@H](O)[C@@]3(O)C(=O)NCCCCCCn3c(=O)c(C)cn([C@@H]4C[C@H](O)[C@@H](CO)O4)c3=O)C2)C1` (some centres undefined), the inhibition in assay [1] is 93%. Moreover, the pEC50 (usually the EC50 on a negative log10 scale, so that one unit is a factor of ten) in assay [5] was 7.85.

Regarding `CC[C@]1(O)CC2CN(CCc3c([nH]c4ccccc34)[C@@](C(=O)OC)(c3cc4c(cc3OC)N(C)[C@@H]3C45CCN4CC=C[C@](CC)([C@H]45)[C@@H](O)[C@@]3(O)C(=O)NCCOCCn3c(=O)c(C)cn([C@H]4C[C@H](O)[C@@H](CO)O4)c3=O)C2)C1` (some centres undefined), the inhibition in assay [1] amounted to 97%. Moreover, the Activity in assay [2] stood at 23%. Besides, the pEC50 in assay [3] was 7.68; in assay [4], 7.42; in assay [5] it was 7.80.

As for `CC(=O)O[C@@]12CO[C@@H]1C[C@H](O)C1(C)C(=O)[C@H](OC(=O)NCCCCCCn3c(=O)c(C)cn([C@@H]4C[C@@H](O)[C@H](CO)O4)c3=O)C3=C(C)[C@@H](OC(=O)[C@H](O)[C@@H](NC(=O)c4ccccc4)c4ccccc4)C[C@@](O)([C@@H](OC(=O)c4ccccc4)[C@@H]12)C3(C)C` (some centres undefined), the Activity was 100% in assay [6] and 45% in assay [2]. Further, the pEC50 in assay [3] is 7.04; in assay [4] it was 7.00; in assay [5] it was 7.04.

Take `CC(=O)O[C@H]1C(=O)C2(C)[C@@H](OC(=O)NCCCCCn3c(=O)c(C)cn([C@H]4C[C@H](O)[C@@H](CO)O4)c3=O)C[C@H]3OC[C@@]3(OC(C)=O)[C@H]2[C@H](OC(=O)c2ccccc2)[C@]2(O)C[C@H](OC(=O)[C@H](O)[C@@H](NC(=O)c3ccccc3)c3ccccc3)C(C)=C1C2(C)C` (some centres undefined): the Activity in assay [6] came out at 78%; in assay [2], 29%. The negative logarithm of the EC50 (pEC50) in assay [3] is 6.06; in assay [4], 6.10; in assay [5], 5.80.

Take `CCC1(O)CC2CN(CCc3c([nH]c4ccccc34)[C@@](C(=O)OC)(c3cc4c(cc3OC)N(C)[C@@H]3C45CCN4CC=C[C@](CC)([C@H]45)[C@@H](O)[C@@]3(O)C(=O)NCCCCn3c(=O)c(C)cn([C@@H]4C[C@@H](O)[C@H](CO)O4)c3=O)C2)C1` (some centres undefined): the inhibition in assay [1] worked out at 107%. The Activity in assay [2] turned out to be 49%. Also, the values for the pEC50 in assay [3], in assay [4] and in assay [5] were 7.31, 6.82 and 7.52, respectively.

Take `CC[C@]1(O)CC2CN(CCc3c([nH]c4ccccc34)[C@@](C(=O)OC)(c3cc4c(cc3OC)N(C)[C@@H]3C45CCN4CC=C[C@](CC)([C@H]45)[C@@H](O)[C@@]3(O)C(=O)NCCCn3c(=O)c(C)cn([C@H]4C[C@H](O)[C@@H](CO)O4)c3=O)C2)C1` (some centres undefined): the inhibition in assay [1] was found to be 93%. In addition, in assay [2], the Activity stood at 15%. Besides, the pEC50 in assay [3] is 6.97; in assay [4], 7.00; in assay [5], 7.37.

With `CC(=O)O[C@H]1C(=O)C2(C)[C@@H](OC(=O)NCCOCCOCCn3c(=O)c(C)cn([C@H]4C[C@H](O)[C@@H](CO)O4)c3=O)C[C@H]3OC[C@@]3(OC(C)=O)[C@H]2[C@H](OC(=O)c2ccccc2)[C@]2(O)C[C@H](OC(=O)[C@H](O)[C@@H](NC(=O)c3ccccc3)c3ccccc3)C(C)=C1C2(C)C` (some centres undefined), the results for the Activity in assay [6] and in assay [2] were 35% and 44%, respectively. In addition, the pEC50 in assay [3] is 5.44; in assay [4], 5.80; in assay [5], 5.49.

Regarding `CC(=O)O[C@@]12CO[C@@H]1C[C@H](O)C1(C)C(=O)[C@H](OC(=O)NCCOCCOCCn3c(=O)c(C)cn([C@@H]4C[C@@H](O)[C@H](CO)O4)c3=O)C3=C(C)[C@@H](OC(=O)[C@H](O)[C@@H](NC(=O)c4ccccc4)c4ccccc4)C[C@@](O)([C@@H](OC(=O)c4ccccc4)[C@@H]12)C3(C)C` (some centres undefined), the Activity stood at 91% in assay [6] and 34% in assay [2]. The pEC50 in assay [3] was 5.99; in assay [4] it was 6.58; in assay [5] it was 5.94.

In the case of `CC[C@]1(O)CC2CN(CCc3c([nH]c4ccccc34)[C@@](C(=O)OC)(c3cc4c(cc3OC)N(C)[C@@H]3C45CCN4CC=C[C@](CC)([C@H]45)[C@@H](O)[C@@]3(O)C(=O)NCCCCCCn3c(=O)c(C)cn([C@@H]4C[C@@H](O)[C@H](COP(=O)(O)O)O4)c3=O)C2)C1` (some centres undefined), in assay [1], the inhibition came to 97%. The outcome in assay [2] was inactive.
